Test results from patent publication US11951094B2, “TLR2 modulator compounds, pharmaceutical compositions and uses thereof” (Axial Therapeutics, Inc., priority 2020, dated 2024).
Structures can show the parent of a compound that is named as a salt.

The compounds below were run against TLR2 (Homo sapiens, UniProt O60603) (assay: TLR2 agonist screening assay, HEK-Blue TLR2 reporter cell line (NF-kB-driven SEAP, absorbance at 600 nm)). Settings: HEK-Blue TLR2 reporter cells, agonist mode; average of all runs (Table 3).
Type: cell-based
Design: host or cells: HEK-293 (HEK-Blue TLR2 reporter cell line)
Method in brief: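 EC50 values come from 600 nm absorbance of SEAP-converted substrate after overnight agonist exposure. The reporter line was HEK-293 engineered with TLR2 and an NF-kB-SEAP construct, seeded at about 40,000 cells per well 16-24 h beforehand. Compounds were added at 1% final DMSO.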

TLR2, sequence (O60603 21-784): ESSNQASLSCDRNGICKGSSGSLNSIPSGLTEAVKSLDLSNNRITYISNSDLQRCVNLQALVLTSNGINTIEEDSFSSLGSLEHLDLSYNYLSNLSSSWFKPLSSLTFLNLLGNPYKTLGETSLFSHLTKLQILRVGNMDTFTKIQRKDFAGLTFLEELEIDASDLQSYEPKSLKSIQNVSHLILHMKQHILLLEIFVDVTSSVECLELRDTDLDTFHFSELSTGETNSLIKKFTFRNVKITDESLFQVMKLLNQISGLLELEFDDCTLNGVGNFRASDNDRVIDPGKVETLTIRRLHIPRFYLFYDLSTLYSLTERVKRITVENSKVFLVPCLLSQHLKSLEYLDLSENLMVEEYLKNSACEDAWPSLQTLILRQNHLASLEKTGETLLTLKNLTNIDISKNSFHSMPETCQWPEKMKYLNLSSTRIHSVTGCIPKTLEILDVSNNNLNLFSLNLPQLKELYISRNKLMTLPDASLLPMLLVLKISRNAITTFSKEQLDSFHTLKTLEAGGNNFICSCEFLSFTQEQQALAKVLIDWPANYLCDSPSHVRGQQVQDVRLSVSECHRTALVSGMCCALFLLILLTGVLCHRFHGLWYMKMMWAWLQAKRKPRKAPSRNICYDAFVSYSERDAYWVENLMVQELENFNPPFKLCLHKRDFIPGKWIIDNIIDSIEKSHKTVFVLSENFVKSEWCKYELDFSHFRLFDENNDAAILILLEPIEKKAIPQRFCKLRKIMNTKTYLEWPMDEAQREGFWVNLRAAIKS

EC50 | Compound
51 to 350 nM | CCCCCCCCN1CCN(C(=O)c2ccc(C(=O)N3C[C@@H](C(=O)N[C@H]4C[C@@H]4c4ccccc4)[C@H](C(=O)N[C@H]4C[C@@H]4c4ccccc4)C3)cc2)C[C@@H]1C(=O)NCCCCCC [Compound 037, (3S,4S)-1-(4-((R)-3-(hexylcarbamoyl)-4-octylpiperazine-1-carbonyl)benzoyl)-N3,N4-bis((1S,2R)-2-phenylcyclopropyl)pyrrolidine-3,4-dicarboxamide formate]
> 1000 nM | O=C(N[C@H]1C[C@@H]1c1ccccc1)[C@@H]1CN(C(=O)c2cnc(C(=O)N3C[C@@H](C(=O)N[C@H]4C[C@@H]4c4ccccc4)[C@H](C(=O)N[C@H]4C[C@@H]4c4ccccc4)C3)cn2)C[C@H]1C(=O)N[C@H]1C[C@@H]1c1ccccc1 [Compound 067]
51 to 350 nM | CCCCCCNC(=O)C1CN(C(=O)c2ccc(C(=O)N3C[C@@H](C(=O)N[C@H]4C[C@@H]4c4ccccc4)[C@H](C(=O)N[C@H]4C[C@@H]4c4ccccc4)C3)cc2)CCN1C(=O)CCCCC (stereo partly drawn) [Compound 050, (3S,4S)-1-(4-(4-hexanoyl-3-(hexylcarbamoyl)piperazine-1-carbonyl)benzoyl)-N3,N4-bis((1S,2R)-2-phenylcyclopropyl)pyrrolidine-3,4-dicarboxamide]
51 to 350 nM | O=C(N[C@H]1C[C@@H]1c1ccccc1)[C@@H]1CN(C(=O)c2cnc(C(=O)N3C[C@@H](C(=O)N[C@H]4C[C@@H]4c4ccccc4)[C@H](C(=O)N[C@H]4C[C@@H]4c4ccccc4)C3)nc2)C[C@H]1C(=O)N[C@H]1C[C@@H]1c1ccccc1 [Compound 071, (3S,3'S,4S,4'S)-1,1′-(pyrimidine-2,5-dicarbonyl)bis(N3,N4-bis((1S,2R)-2-phenylcyclopropyl)pyrrolidine-3,4-dicarboxamide)]
351 to 1000 nM | CCCCCCNC(=O)C1CN(C(=O)c2ccc(C(=O)N3C[C@@H](C(=O)N[C@H]4C[C@@H]4c4ccccc4)[C@H](C(=O)N[C@H]4C[C@@H]4c4ccccc4)C3)cc2)CCN1C(=O)CCc1ccc(F)cc1 (stereo partly drawn) [Compound 041, (3S,4S)-1-(4-(4-(3-(4-fluorophenyl)propanoyl)-3-(hexylcarbamoyl)piperazine-1-carbonyl)benzoyl)-N3,N4-bis((1S,2R)-2-phenylcyclopropyl)pyrrolidine-3,4-dicarboxamide]
0.1 to 50 nM | CCCCCCCCCC(=O)N1CCN(C(=O)c2ccc(C(=O)N3C[C@@H](C(=O)N[C@H]4C[C@@H]4c4ccccc4)[C@H](C(=O)N[C@H]4C[C@@H]4c4ccccc4)C3)cc2)CC1C(=O)NCCCCCC (stereo partly drawn) [Compound 064, (3S,4S)-1-(4-(4-decanoyl-3-(hexylcarbamoyl)piperazine-1-carbonyl)benzoyl)-N3,N4-bis((1S,2R)-2-phenylcyclopropyl)pyrrolidine-3,4-dicarboxamide]

Same assay, conditions: HEK-Blue TLR2 reporter cells, agonist mode; average of all runs (Table 4)

EC50 | Compound
351 to 1000 nM | CCCCCCC(=O)N[C@@H](CNC(=O)c1ccc(C(=O)N2C[C@@H](C(=O)N[C@H]3C[C@@H]3c3ccccc3)[C@H](C(=O)N[C@H]3C[C@@H]3c3ccccc3)C2)cc1)C(=O)NCCCC [Compound 131, (3S,4S)-1-(4-(((S)-3-(butylamino)-2-heptanamido-3-oxopropyl)carbamoyl)benzoyl)-N3,N4-bis((1S,2R)-2-phenylcyclopropyl)pyrrolidine-3,4-dicarboxamide]
> 1000 nM | CCCCCCCCCCCCCCC(=O)N[C@H]1CCN(Cc2ccc(C(=O)N3C[C@@H](C(=O)N[C@H]4C[C@@H]4c4ccccc4)[C@H](C(=O)N[C@H]4C[C@@H]4c4ccccc4)C3)cc2)C1=O [Compound 133, (3S,4S)-1-(4-(((S)-2-oxo-3-pentadecanamidopyrrolidin-1-yl)methyl)benzoyl)-N3,N4-bis((1S,2R)-2-phenylcyclopropyl)pyrrolidine-3,4-dicarboxamide]
351 to 1000 nM | CCCCCCCCCC(=O)N[C@@H](CNCc1ccc(C(=O)N2C[C@@H](C(=O)N[C@H]3C[C@@H]3c3ccccc3)[C@H](C(=O)N[C@H]3C[C@@H]3c3ccccc3)C2)cc1)C(=O)NCCCCCC [Compound 266, (3S,4S)-1-(4-((((S)-2-decanamido-3-(hexylamino)-3-oxopropyl)amino)methyl)benzoyl)-N3,N4-bis((1S,2R)-2-phenylcyclopropyl) pyrrolidine-3,4-dicarboxamide]
> 1000 nM | CCCCCCNC(=O)CC[C@@H](NC(=O)c1ccc(C(=O)N2C[C@@H](C(=O)N[C@H]3C[C@@H]3c3ccccc3)[C@H](C(=O)N[C@H]3C[C@@H]3c3ccccc3)C2)cc1)C(=O)NCCCCCC [Compound 099, (3S,4S)-1-(4-(((R)-1,5-bis(hexylamino)-1,5-dioxopentan-2-yl)carbamoyl)benzoyl)-N3,N4-bis((1S,2R)-2-phenylcyclopropyl)pyrrolidine-3,4-dicarboxamide]
51 to 350 nM | CCCCCCCCCCCCCCNC(=O)C[C@H]1CCCN1C(=O)c1ccc(C(=O)N2C[C@@H](C(=O)N[C@H]3C[C@@H]3c3ccccc3)[C@H](C(=O)N[C@H]3C[C@@H]3c3ccccc3)C2)cc1 [Compound 127, (3S,4S)-1-(4-((R)-2-(2-oxo-2-(tetradecylamino)ethyl)pyrrolidine-1-carbonyl)benzoyl)-N3,N4-bis((1S,2R)-2-phenylcyclopropyl) pyrrolidine-3,4-dicarboxamide]
> 1000 nM | CCCCCCCCCCCCCNC(=O)[C@@H]1CN(C(=O)c2ccc(C(=O)N3C[C@@H](C(=O)N[C@H]4C[C@@H]4c4ccccc4)[C@H](C(=O)N[C@H]4C[C@@H]4c4ccccc4)C3)cc2)CCN1C(C)=O [Compound 254, (3S,4S)-1-(4-((S)-4-acetyl-3-(tridecylcarbamoyl)piperazine-1-carbonyl)benzoyl)-N3,N4-bis((1S,2R)-2-phenylcyclopropyl)pyrrolidine-3,4-dicarboxamide]
51 to 350 nM | CCCCCCCCCC(=O)N[C@@H](CN1Cc2cc(C(=O)N3C[C@@H](C(=O)N[C@H]4C[C@@H]4c4ccccc4)[C@H](C(=O)N[C@H]4C[C@@H]4c4ccccc4)C3)ccc2C1=O)C(=O)NCCCCCC [Compound 242, (3S,4S)-1-(2-((S)-2-decanamido-3-(hexylamino)-3-oxopropyl)-1-oxoisoindoline-5-carbonyl)-N3,N4-bis((1S,2R)-2-phenylcyclopropyl)pyrrolidine-3,4-dicarboxamide]
351 to 1000 nM | CCCCCCCCCNC(=O)[C@@H]1CN(C(=O)c2ccc(C(=O)N3C[C@@H](C(=O)N[C@H]4C[C@@H]4c4ccccc4)[C@H](C(=O)N[C@H]4C[C@@H]4c4ccccc4)C3)cc2)CCN1C(C)=O [Compound 257, (3S,4S)-1-(4-((S)-4-acetyl-3-(nonylcarbamoyl)piperazine-1-carbonyl)benzoyl)-N3,N4-bis((1S,2R)-2-phenylcyclopropyl)pyrrolidine-3,4-dicarboxamide]
> 1000 nM | CCCCCCCCCCCCCCNC(=O)C[C@@H]1CCCN1C(=O)c1ccc(C(=O)N2C[C@@H](C(=O)N[C@H]3C[C@@H]3c3ccccc3)[C@H](C(=O)N[C@H]3C[C@@H]3c3ccccc3)C2)cc1 [Compound 135, (3S,4S)-1-(4-((S)-2-(2-oxo-2-(tetradecylamino)ethyl)pyrrolidine-1-carbonyl)benzoyl)-N3,N4-bis((1S,2R)-2-phenylcyclopropyl) pyrrolidine-3,4-dicarboxamide]
> 1000 nM | CCCCCCCCCCCCCCNC(=O)C1COC(=O)N(Cc2ccc(C(=O)N3C[C@@H](C(=O)N[C@H]4C[C@@H]4c4ccccc4)[C@H](C(=O)N[C@H]4C[C@@H]4c4ccccc4)C3)cc2)C1 (stereo partly shown) [Compound 179]
> 1000 nM | CCCCCCNC(=O)[C@@H](CNC(=O)CCCCCC)NC(=O)c1ccc(C(=O)N2C[C@@H](C(=O)N[C@H]3C[C@@H]3c3ccccc3)[C@H](C(=O)N[C@H]3C[C@@H]3c3ccccc3)C2)cc1 [Compound 118, (3S,4S)-1-(4-(((R)-3-heptanamido-1-(hexylamino)-1-oxopropan-2-yl)carbamoyl)benzoyl)-N3,N4-bis((1S,2R)-2-phenylcyclopropyl) pyrrolidine-3,4-dicarboxamide]
351 to 1000 nM | CCCCCCCCCCCCCCOC(=O)N[C@H]1CN(C(=O)c2ccc(C(=O)N3C[C@@H](C(=O)N[C@H]4C[C@@H]4c4ccccc4)[C@H](C(=O)N[C@H]4C[C@@H]4c4ccccc4)C3)cc2)C[C@@H]1OC [Compound 218, Tetradecyl ((3S,4S)-1-(4-((3S,4S)-3,4-bis(((1S,2R)-2-phenylcyclopropyl)carbamoyl)pyrrolidine-1-carbonyl)benzoyl)-4-methoxypyrrolidin-3-yl)carbamate]
51 to 350 nM | CCCCCCCO[C@H]1CN(C(=O)c2ccc(C(=O)N3C[C@@H](C(=O)N[C@H]4C[C@@H]4c4ccccc4)[C@H](C(=O)N[C@H]4C[C@@H]4c4ccccc4)C3)cc2)C[C@@H]1NC(=O)CCCCCC [Compound 080, (3S,4S)-1-(4-((3S,4S)-3-heptanamido-4-(heptyloxy)pyrrolidine-1-carbonyl)benzoyl)-N3,N4-bis((1S,2R)-2-phenylcyclopropyl)pyrrolidine-3,4-dicarboxamide]
> 1000 nM | CCCCCCCCCCCNC(=O)[C@@H]1CN(C(=O)c2ccc(C(=O)N3C[C@@H](C(=O)N[C@H]4C[C@@H]4c4ccccc4)[C@H](C(=O)N[C@H]4C[C@@H]4c4ccccc4)C3)cc2)CCN1C(C)=O [Compound 256, (3S,4S)-1-(4-((S)-4-acetyl-3-(undecylcarbamoyl)piperazine-1-carbonyl)benzoyl)-N3,N4-bis((1S,2R)-2-phenylcyclopropyl) pyrrolidine-3,4-dicarboxamide]
51 to 350 nM | CCCCCCCC[C@H]1CN(C(=O)c2ccc(C(=O)N3C[C@@H](C(=O)N[C@H]4C[C@@H]4c4ccccc4)[C@H](C(=O)N[C@H]4C[C@@H]4c4ccccc4)C3)cc2)C[C@@H]1C(=O)NCCCCCC (single isomer, unassigned) [Compound 112]
51 to 350 nM | CCCCCCCO[C@@H]1CN(C(=O)c2ccc(C(=O)N3C[C@@H](C(=O)N[C@H]4C[C@@H]4c4ccccc4)[C@H](C(=O)N[C@H]4C[C@@H]4c4ccccc4)C3)cc2)C[C@H]1C(=O)NCCCCCC (single isomer, unassigned) [Compound 114, (3S,4S)-1-(4-((3S*,4R*)-3-(heptyloxy)-4-(hexylcarbamoyl)pyrrolidine-1-carbonyl)benzoyl)-N3,N4-bis((1S,2R)-2-phenylcyclopropyl)pyrrolidine-3,4-dicarboxamide]
